# Results as given in ChEMBL document CHEMBL5512673, “Secondary Structure Stabilization of Macrocyclic Antimicrobial Peptides via Cross-Link Swapping” (J Med Chem, 2024).
# Active and inactive are the calls of the source. The rule behind the calls is not given here. Bridge positions count the residues as written; N and C are the ends. Square brackets hold non-standard residues; d marks the D form. Peptide text beside a SMILES is read from it. Dab = NCC[C@H](N)C(=O)O; Dap = NC[C@H](N)C(=O)O
# What was measured:
# Escherichia coli [1] = experiment: Antibacterial activity against Escherichia coli assessed as inhibition of bacterial growth incubated for 24 hrs by nutrient agar plate method; format: functional
# Bacillus subtilis [2] = experiment: Antibacterial activity against Bacillus subtilis assessed as inhibition of bacterial growth incubated for 24 hrs by nutrient agar plate method; format: functional
# [3] = test system: Staphylococcus epidermidis; experiment: Antibacterial activity against Staphylococcus epidermidis assessed as inhibition of bacterial growth incubated for 24 hrs by nutrient agar plate method; format: functional
# RAW264.7 [4] = experiment: Cytotoxicity against mouse RAW264.7 cells assessed as reduction in cell viability at 100 uM incubated for 24 hrs by MTS assay; format: toxicity, cell-based; conditions: raw264.7, 24 h
# Escherichia coli [5] = experiment: Antibacterial activity against Escherichia coli assessed as reduction in bacterial cell viability incubated for 24 hrs by nutrient agar plate method; format: functional, organism-based
# Bacillus subtilis [6] = experiment: Antibacterial activity against Bacillus subtilis assessed as reduction in bacterial cell viability incubated for 24 hrs by nutrient agar plate method; format: functional, organism-based
# [7] = test system: Staphylococcus epidermidis; experiment: Antibacterial activity against Staphylococcus epidermidis assessed as reduction in bacterial cell viability incubated for 24 hrs by nutrient agar plate method; format: functional, organism-based
# RAW264.7 [8] = experiment: Upregulation of IL-1beta production in mouse RAW264.7 cells at 50 uM incubated for 24 hrs by ELISA; format: functional, cell-based
# RAW264.7 [9] = experiment: Effect on IL-10 release in mouse RAW264.7 cells at 50 uM incubated for 24 hrs by ELISA; format: functional, cell-based
# RAW264.7 [10] = experiment: Anti-inflammatory activity in mouse RAW264.7 cells assessed as reduction in LPS-induced IL-1beta production at 50 uM incubated for 24 hrs by ELISA; format: functional, cell-based
# RAW264.7 [11] = experiment: Anti-inflammatory activity in mouse RAW264.7 cells assessed as reduction in LPS-induced IL-10 production at 50 uM incubated for 24 hrs by ELISA; format: functional, cell-based
# [12] = Aggregation property of compound in aqueous solution assessed as critical micelle concentration by dynamic light scattering analysis; format: physicochemical; conditions: buffer
# Escherichia coli [13] = experiment: Antibacterial activity against Escherichia coli NEB 5alpha assessed as aggregation of bacteria into flakes at 2 to 50 uM incubated for 4 hrs by bacterial flocculation assay; format: functional, organism-based; conditions: dose 2-50 µM
# Bacillus subtilis [14] = experiment: Antibacterial activity against Bacillus subtilis ATCC 6051 assessed as aggregation of bacteria into flakes at 2 to 50 uM incubated for 4 hrs by bacterial flocculation assay; format: functional, organism-based; conditions: dose 2-50 µM
# Micrococcus luteus [15] = experiment: Antibacterial activity against Micrococcus luteus assessed as inhibition of bacterial growth incubated for 24 hrs by nutrient agar plate method; format: functional
# Micrococcus luteus [16] = experiment: Antibacterial activity against Micrococcus luteus assessed as reduction in bacterial cell viability incubated for 24 hrs by nutrient agar plate method; format: functional, organism-based
# Trypsin = Trypsin (Homo sapiens, UniProt P07477+P07478+P35030); experiment: Stability of compound in PBS at […] assessed as trypsin (unknown origin)-mediated drug degradation measured after 3 to 60 mins using TAMRA-labelled compound by HPLC analysis; format: ADME, protein assay; conditions: buffer, time 3-60 min
Structure (SMILES),MIC (Escherichia coli [1]) [µM],MIC (Bacillus subtilis [2]) [µM],MIC [3] [µM],CMC [12] [µM],MIC (Micrococcus luteus [15]) [µM],Stability (Trypsin),Activity (RAW264.7 [4]),IC50 (Escherichia coli [5]) [µM],IC50 (Bacillus subtilis [6]) [µM],IC50 [7] [µM],Activity (RAW264.7 [8]),Activity (RAW264.7 [9]),Activity (RAW264.7 [10]),Activity (RAW264.7 [11]),Activity (Escherichia coli [13]),Activity (Bacillus subtilis [14]),IC50 (Micrococcus luteus [16]) [µM]
CC[C@H](C)[C@@H]1NC(=O)[C@H](CCCNC(=N)N)NC(=O)[C@H](Cc2ccccc2)NC(=O)[C@H](CCCCN)NC(=O)[C@H](Cc2ccccc2)NC(=O)[C@H](CCCNC(=N)N)NC(=O)[C@@H](N)CCC(=O)NC[C@@H](C(N)=O)NC(=O)[C@H]([C@@H](C)CC)NC(=O)[C@H](C(C)C)NC1=O (H-ERFKFRIVI[Dap]-NH2; lactam 1-10),80,100,40,10.8,–,–,Non-Toxic,41.5,38.5,10.2,Active,Active,Active,Active,Active,Active,–
CC1(C)S[C@@H]2[C@H](NC(=O)[C@H](N)c3ccccc3)C(=O)N2[C@H]1C(=O)O [AMPICILLIN],12.5,25,50,–,3.1,–,–,1.5,1,8.5,–,–,–,–,–,–,1.1
CC[C@H](C)[C@@H]1NC(=O)[C@H](CCCNC(=N)N)NC(=O)[C@H](Cc2ccccc2)NC(=O)[C@H](CCCCN)NC(=O)[C@H](Cc2ccccc2)NC(=O)[C@H](CCCNC(=N)N)NC(=O)[C@@H](N)CSSC[C@@H](C(N)=O)NC(=O)[C@H]([C@@H](C)CC)NC(=O)[C@H](C(C)C)NC1=O (H-CRFKFRIVIC-NH2; disulfide 1-10),80,100,50,4.5,–,–,Non-Toxic,32.2,461,8.5,Active,Active,Active,Active,Active,Active,–
CN(C)c1ccc2c(-c3ccc(C(=O)N[C@@H](Cc4ccc(O)cc4)C(=O)NCC(=O)N[C@@H](CCCNC(=N)N)C(=O)N[C@@H](CCCCN)C(=O)N[C@@H](CCCCN)C(=O)N[C@@H](CCCNC(=N)N)C(=O)N[C@@H](CCCNC(=N)N)C(=O)N[C@@H](CCC(N)=O)C(=O)N[C@@H](CCCNC(=N)N)C(=O)N[C@@H](CCCNC(=N)N)C(=O)N[C@@H](CCCNC(=N)N)C(=O)O)cc3C(=O)[O-])c3ccc(=[N+](C)C)cc-3oc2c1,–,–,–,–,–,Unstable,–,–,–,–,–,–,–,–,–,–,–

# The next lines start with results.
MIC (Escherichia coli [1]) [µM],MIC (Bacillus subtilis [2]) [µM],MIC [3] [µM],CMC [12] [µM],MIC (Micrococcus luteus [15]) [µM],Stability (Trypsin),Structure (SMILES),Activity (RAW264.7 [4]),IC50 (Escherichia coli [5]) [µM],IC50 (Bacillus subtilis [6]) [µM],IC50 [7] [µM],Activity (RAW264.7 [8]),Activity (RAW264.7 [9]),Activity (RAW264.7 [10]),Activity (RAW264.7 [11]),Activity (Escherichia coli [13]),Activity (Bacillus subtilis [14]),IC50 (Micrococcus luteus [16]) [µM]
100,100,40,2.3,–,–,CC[C@H](C)[C@@H]1NC(=O)[C@H](CCCNC(=N)N)NC(=O)[C@H](Cc2ccccc2)NC(=O)[C@H](CCCCN)NC(=O)[C@H](Cc2ccccc2)NC(=O)[C@H](CCCNC(=N)N)NC(=O)[C@@H](N)CNC(=O)CC[C@@H](C(N)=O)NC(=O)[C@H]([C@@H](C)CC)NC(=O)[C@H](C(C)C)NC1=O (H-[Dap]RFKFRIVIE-NH2; lactam 1-10),Non-Toxic,35.9,36.2,7.2,Active,Active,Active,Active,Active,Active,–
40,60,20,> 100,80,–,CC[C@H](C)[C@@H]1NC(=O)[C@H](CCCNC(=N)N)NC(=O)[C@H](Cc2ccccc2)NC(=O)[C@H](CCCCN)NC(=O)[C@H](Cc2ccccc2)NC(=O)[C@H](CCCNC(=N)N)NC(=O)[C@@H](N)CCNC(=O)CC[C@@H](C(N)=O)NC(=O)[C@H]([C@@H](C)CC)NC(=O)[C@H](C(C)C)NC1=O (H-[Dab]RFKFRIVIE-NH2; lactam 1-10),Non-Toxic,10.7,15.4,3.9,Active,Active,inactive,inactive,Active,Active,18
40,60,20,> 100,80,–,CC[C@H](C)[C@@H]1NC(=O)[C@H](CCCNC(=N)N)NC(=O)[C@H](Cc2ccccc2)NC(=O)[C@H](CCCCN)NC(=O)[C@H](Cc2ccccc2)NC(=O)[C@H](CCCNC(=N)N)NC(=O)[C@@H](N)CCC(=O)NCC[C@@H](C(N)=O)NC(=O)[C@H]([C@@H](C)CC)NC(=O)[C@H](C(C)C)NC1=O (H-ERFKFRIVI[Dab]-NH2; lactam 1-10),Non-Toxic,8.5,15,3.5,Active,Active,inactive,inactive,Active,Active,11.1
